This passage reports Ki results from US20030229066A1, “Novel heterocyclic urea derivatives and their use as dopamine D3 receptor ligands” (priority 2001, published 2003).

The target in one assay is T1, cloned human dopamine D3 receptors (Homo sapiens, UniProt P35462).
T1 construct: expressed in transfected cells
T1 sequence (P35462 whole entry): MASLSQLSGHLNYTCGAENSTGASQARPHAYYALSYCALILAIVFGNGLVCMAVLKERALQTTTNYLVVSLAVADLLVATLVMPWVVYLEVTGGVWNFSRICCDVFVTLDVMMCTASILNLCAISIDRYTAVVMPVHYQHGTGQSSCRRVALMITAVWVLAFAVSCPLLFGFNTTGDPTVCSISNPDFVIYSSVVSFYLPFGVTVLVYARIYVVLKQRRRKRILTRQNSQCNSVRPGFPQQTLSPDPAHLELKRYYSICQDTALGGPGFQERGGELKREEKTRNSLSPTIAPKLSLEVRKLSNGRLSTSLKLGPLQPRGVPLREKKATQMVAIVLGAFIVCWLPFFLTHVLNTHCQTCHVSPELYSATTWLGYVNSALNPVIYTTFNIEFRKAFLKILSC
Put plainly: [N-Methyl-3H]Spiroperidol binding to cloned human dopamine D3 receptors.
Conditions: not given
The text has this:
[N-Methyl-^3H]Spiroperidol Binding to Cloned Human Dopamine D3 Receptors
This assay measures the in vitro activity of compounds on cloned human dopamine (D3) receptors and predicts the direct dopamine-blocking properties of putative neuropsychiatric agents at human dopamine D3 receptors.
The D3 gene was isolated from a human striatal cDNA library (Stratagene). The gene was sequenced and sub-cloned into the expression vector RC/RSV (Invitrogen). CHO (Chinese Hamster Ovary) cells were stably transfected with 10 μg of the D3/RSV plasmid using the DOTAP method from Boehringer Mannheim and 72 clones that were G418 resistant were isolated. Using mRNA and binding displacement data a single high expressing clone was identified. This clone was then grown in large batches for the purpose of developing a 96 well format assay.
The cells are harvested into 250 ml centrifuge tubes with 100 volumes of cold phosphate buffered saline (PBS) and spun down (1200×G for 10 min at 4° C.). The medium is removed and 100 ml PBS are added to each centrifuge tube, cells are resuspened and spun down again. The PBS is removed and the final pellet is homogenized in an appropriate volume of 10% DMSO with a polytron on ice at a medium setting.
For Kj determinations: [^3H]NMSP is made up to a concentration of 2.7 nM in buffer 2b, such that when 150 μl is added to each tube a final concentration of 0.4 nM is attained in the 1 ml assay. Samples of total CPM added are taken for each experiment to calculate the total ligand concentration.
5. S(-)-Eticlopride is obtained from Research Biochemicals International (RBI catalog number E-101). A refrigerated stock (good for up to a month) solution of S(-)-eticlopride is made at a concentration of 30 μM in buffer 2b. One hundred microliters are added to 3 wells for the determination of nonspecific binding (this yields a final concentration of 3 μM in the 1 ml assay).
For most assays, a 100 μM stock solution of the test compound is made up in a suitable solvent (usually <0.1% acetic acid) and serially diluted with buffer 2b, such that when 100 μl of drug is combined with the total 1 ml assay, final concentrations ranging from 10^−5-10^−8 M are attained. Characteristically eight concentrations are studied for each assay; however, higher or lower concentrations may be used, depending on the potency of the drug.
The 96-Well Packard Unifilters GF/B are incubated for >1 h at 25° C. in 0.1% polyethylamine (from 3,b). The cold tissue is added last and mixed on a orbital shaker for a few seconds and is then incubated at 37° C. for 30 min in a shaking water bath. The assay is stopped by rapid filtration through Packard Unifilter plates. The filter membranes are then washed with 15 ml of ice-cold 0.05 M Tris buffer. The filters are then dried (˜15 min under a heat lamp or incubated for 15 min in a 60° C. oven) and a bottom seal is applied. Then 40 μl of Packard Microscint 20 scintillation cocktail is added and a permanent topseal (Type P) is applied and heat sealed. The plates are then shaken on an orbital shaker for 1 h and placed in the Packard Topcount and counted for at least 5 minutes for each point.
Specific binding is defined as the difference between total binding and the binding in the presence of 3 μM S-(-)-eticlopride. Total binding is approximately 10% of the total added ligand. Cheng-Prusoff determination (Kj's) are performed using Prism software using a one-site competition curve analysis where the top and the bottom of the non-linear regression are held constant at 0% and 100% percent inhibition. The percent inhibition at each drug concentration is the mean of duplicate determinations.
The compound `CC(=O)c1ccc(NC(=O)NCCCCN2C3CCC2CC(c2noc4cc(F)ccc24)C3)cc1` (stereo not drawn) [compound 817228] returned a Ki of 0.179 µM.
On the same count and under the same terms, under `O=C(NCCCCN1C2CCC1CC(c1noc3cc(F)ccc13)C2)Nc1ccccc1F` (stereo not drawn) [compound 817229] stands 0.365 µM; under `O=C(NCCCCN1C2CCC1CC(c1noc3cc(F)ccc13)C2)Nc1ccc(-c2ccccc2)cc1` (stereo not drawn) [compound 817230], 0.182 µM.
On the same count and under the same terms, the value for `O=C(NCCCCN1C2CCC1CC(c1noc3cc(F)ccc13)C2)Nc1cccc(C(F)(F)F)c1` (stereo not drawn) [compound 817231] was 0.433 µM; that for `Cc1ccc(NC(=O)NCCCCN2C3CCC2CC(c2noc4cc(F)ccc24)C3)cc1` (stereo not drawn) [compound 817234] was 0.256 µM; that for `O=C(NCCCCN1CCN(c2n[nH]c3ccsc23)CC1)Nc1ccc(C(F)(F)F)cc1` [compound 825154] was 0.0355 µM.
`O=C(NCCCCN1CCN(c2n[nH]c3ccsc23)CC1)Nc1ccc(OC(F)(F)F)cc1` [compound 825155]: the Ki turned out to be 0.0848 µM.
The compound `CCOc1ccc(NC(=O)NCCCCN2CCN(c3n[nH]c4ccsc34)CC2)cc1` [compound 825156] registered a Ki of 0.0632 µM.
`O=C(NCCCCN1CCN(c2nn(C(=O)Nc3ccccc3C(F)(F)F)c3ccsc23)CC1)Nc1ccccc1C(F)(F)F` [compound 825160] gave a Ki of 0.202 µM.
Still for that read-out and setting: the value for `O=C(NCCCCN1CCN(c2nn(C(=O)Nc3ccc(OC(F)(F)F)cc3)c3ccsc23)CC1)Nc1ccc(OC(F)(F)F)cc1` [compound 825167] was 0.374 µM; that for `CCOc1ccc(NC(=O)NCCCCN2CCN(c3nn(C(=O)Nc4ccc(OCC)cc4)c4ccsc34)CC2)cc1` [compound 825168] was 0.0474 µM.
On the same count and under the same terms, under `O=C(NCCCCN1CCN(c2cn(C(=O)Nc3ccc(F)cc3)c3ccsc23)CC1)Nc1ccc(F)cc1` [compound 825170] stands 0.136 µM; under `O=C(NCCCCN1CCN(c2nn(C(=O)Nc3ccc(F)cc3F)c3ccsc23)CC1)Nc1ccc(F)cc1F` [compound 825171], 0.496 µM; under `O=C(NCCCCN1CCCN(c2csc3cc(F)ccc23)CC1)Nc1ccc(Cl)c(Cl)c1` [compound 829191], 0.043 µM.
Still for that read-out and setting: under `Cc1cccc(NC(=O)NCCCCN2CCCN(c3csc4cc(F)ccc34)CC2)c1` [compound 829192] stands 0.00403 µM; under `O=C(NCCCCN1CCCN(c2csc3cc(F)ccc23)CC1)Nc1cccc(Cl)c1` [compound 829193], 0.00786 µM.
In turn, `O=C(NCCCCN1CCCN(c2csc3cc(F)ccc23)CC1)Nc1ccc(C(F)(F)F)cc1` [compound 829195] came in with a Ki of 0.0211 µM.
Same read-out and setting: the value for `O=C(NCCCCN1CCCN(c2csc3cc(F)ccc23)CC1)Nc1cccc(Br)c1` [compound 829196] was 0.0109 µM; that for `O=C(NCCCCN1CCCN(c2csc3cc(F)ccc23)CC1)Nc1ccc(OC(F)(F)F)cc1` [compound 829197] was 0.0348 µM.
The same measure, in the same setting: the value for `O=C(NCCCCN1CCCN(c2csc3cc(F)ccc23)CC1)Nc1cc(C(F)(F)F)cc(C(F)(F)F)c1` [compound 829198] was 0.0656 µM.
Same read-out and setting: the value for `O=C(NCCCCN1CCCN(c2csc3cc(F)ccc23)CC1)Nc1ccc(Cl)c(C(F)(F)F)c1` [compound 829200] was 0.0478 µM; that for `O=C(NCCCCN1CCCN(c2csc3cc(F)ccc23)CC1)Nc1cc(Cl)cc(Cl)c1` [compound 829202] was 0.0166 µM; that for `Cc1ccc(NC(=O)NCCCCN2CCCN(c3csc4cc(F)ccc34)CC2)cc1` [compound 829203] was 0.00564 µM.
Take `CSc1ccc(NC(=O)NCCCCN2CCCN(c3csc4cc(F)ccc34)CC2)cc1` [compound 829204]: the Ki came out at 0.005 µM.
The same measure, in the same setting: the value for `CC(=O)c1cccc(NC(=O)NCCCCN2CCCN(c3csc4cc(F)ccc34)CC2)c1` [compound 829206] was 0.0025 µM.

Still in this assay, the particulars now being: Table III; read-out: d3Ki.
In the case of `O=C(NCCCCN1CCN(c2csc3cc(C(F)(F)F)ccc23)CC1)NCc1ccccc1` [compound 815998], the Ki was 0.0225 µM.
On the same count and under the same terms, under `COc1ccccc1NC(=O)NCCCCN1CCN(c2csc3cc(C(F)(F)F)ccc23)CC1` [compound 815999] stands 0.019 µM; under `O=C(NCCCCN1CCN(c2csc3cc(C(F)(F)F)ccc23)CC1)Nc1ccc(F)cc1` [compound 816004], 0.00611 µM.
On the same count and under the same terms, the value for `O=C(NCCCCN1CCN(c2csc3cc(C(F)(F)F)ccc23)CC1)Nc1ccc(F)cc1F` [compound 816006] was 0.00742 µM.
The same measure, in the same setting: the value for `Cc1ccccc1NC(=O)NCCCCN1CCN(c2csc3cc(C(F)(F)F)ccc23)CC1` [compound 816007] was 0.0175 µM.
On to `COc1ccc(NC(=O)NCCCCN2CCN(c3csc4cc(C(F)(F)F)ccc34)CC2)c(OC)c1` [compound 816008], for which the Ki worked out at 0.017 µM.
The same measure, in the same setting: under `O=C(NCCCCN1CCC(c2noc3ccsc23)CC1)NC12CC3CC(CC(C3)C1)C2` [compound 816210] stands 0.187 µM.
The same measure, in the same setting: the value for `CC(=O)c1ccc(NC(=O)NCCCCN2CCN(c3c(-c4ccccc4)sc4cc(F)ccc34)CC2)cc1` [compound 816226] was 0.184 µM; that for `O=C(NCCCCN1CCN(c2c(-c3ccccc3)sc3cc(F)ccc23)CC1)NC1CCCCC1` [compound 816232] was 0.00594 µM.
Same read-out and setting: the value for `O=C(NCCCCN1CCC(c2noc3ccsc23)CC1)Nc1ccc(F)c([N+](=O)[O-])c1` [compound 816557] was 0.0207 µM.
For `O=C(NCCCCN1CCC(c2noc3ccsc23)CC1)Nc1ccc(Cl)c([N+](=O)[O-])c1` [compound 816559], the Ki turned out to be 0.0131 µM.
For the compound `O=C(NCCCCN1CCC(c2noc3ccsc23)CC1)Nc1ccc([N+](=O)[O-])cc1` [compound 816562], the Ki was found to be 0.00699 µM.
Still for that read-out and setting: the value for `CCCCOc1ccc(NC(=O)NCCCCN2CCC(c3noc4ccsc34)CC2)cc1` [compound 816564] was 0.0559 µM; that for `O=C(NCCCCN1CCC(c2noc3ccsc23)CC1)Nc1ccc(Cl)cc1Cl` [compound 816566] was 0.0951 µM.
On the same count and under the same terms, the value for `COc1ccc(NC(=O)NCCCCN2CCC(c3noc4ccsc34)CC2)c(OC)c1` [compound 816567] was 0.0738 µM; that for `CCOc1ccccc1NC(=O)NCCCCN1CCC(c2noc3ccsc23)CC1` [compound 816764] was 0.0854 µM; that for `O=C(NCCCCN1CCC(c2noc3ccsc23)CC1)Nc1c(F)cccc1F` [compound 816766] was 0.0429 µM.
The same measure, in the same setting: the value for `COc1ccc(NC(=O)NCCCCN2CCC(c3noc4ccsc34)CC2)c(OC)c1` [compound 816767] was 0.0601 µM.
On to `O=C(NCCCCN1CCC(c2noc3ccsc23)CC1)Nc1ccc(Cl)cc1Cl` [compound 816769], for which the Ki turned out to be 0.0578 µM.
Same read-out and setting: the value for `COc1cc(Cl)c(NC(=O)NCCCCN2CCC(c3noc4ccsc34)CC2)c(OC)c1` [compound 816770] was 0.0282 µM.
Same read-out and setting: the value for `COc1c(Cl)cccc1NC(=O)NCCCCN1CCC(c2noc3ccsc23)CC1` [compound 816771] was 0.0741 µM.
Take `CCOc1ccccc1NC(=O)NCCCCN1CCC(c2noc3ccsc23)CC1` [compound 816876]: the Ki came to 0.0469 µM.
With `O=C(NCCCCN1CCC(c2noc3ccsc23)CC1)Nc1c(F)cccc1F` [compound 816878], the Ki was 0.0338 µM.
Same read-out and setting: the value for `COc1ccc(NC(=O)NCCCCN2CCC(c3noc4ccsc34)CC2)c(OC)c1` [compound 816879] was 0.047 µM.
Same read-out and setting: under `O=C(NCCCCN1CCC(c2noc3ccsc23)CC1)Nc1cc(C(F)(F)F)cc(C(F)(F)F)c1` [compound 816881] stands 0.0238 µM; under `COc1cc(Cl)c(NC(=O)NCCCCN2CCC(c3noc4ccsc34)CC2)c(OC)c1` [compound 816882], 0.0586 µM.
The same measure, in the same setting: under `COc1c(Cl)cccc1NC(=O)NCCCCN1CCC(c2noc3ccsc23)CC1` [compound 816883] stands 0.0355 µM; under `O=C(NCCCCN1CCC(c2noc3ccsc23)CC1)NCc1ccc(Cl)cc1Cl` [compound 816968], 0.0242 µM; under `COc1ccc(NC(=O)NCCCCN2CCC(c3noc4ccsc34)CC2)c(OC)c1` [compound 818310], 0.133 µM.
